Consider five molecules from ChEMBL document CHEMBL1152093, “The effect of propargylic substitution on the activation and aromatization of enediynes” (Bioorg Med Chem Lett, 1994).

Test [1] relates to Mus musculus. In words: Compound was tested in vivo in mice against Madison 109 lung carcinoma cell line (M109) in a pretreated group over a control group at 64 mg/kg/inj. The format is functional.
Another test concerns HCT-116. In words: In vitro cytotoxicity against 116 human colon tumor cell line (HCT116). The format is functional, cell-based.
For test [2], the system named is Mus musculus. In words: Compound was tested in vivo in mice against Madison 109 lung carcinoma cell line (M109) in a pretreated group over a control group at 32 mg/kg/inj. It counts as functional.
The test system of test [3] is Mus musculus. The test can be described thus: Compound was tested in vivo in mice against Madison 109 lung carcinoma cell line (M109) in a pretreated group over a control group at 128 mg/kg/inj. It counts as functional.
Test [4] deals with Mus musculus. In words: Compound was tested in vivo in mice against Madison 109 lung carcinoma cell line (M109) in a pretreated group over a control group at 16 mg/kg/inj. The format is functional.

As to `CC(C)(C)[Si](C)(C)O[C@@]12C#C/C=C\C#C[C@@H](OC(=O)COc3ccccc3)C(=CCC1)C2=O`, the T/C with Mus musculus [1] was 143%. The same molecule had an IC50 with HCT-116 of 190 nM.

`CC(C)(C)[Si](C)(C)O[C@@]12C#C/C=C\C#C[C@@H](F)C(=CCC1)C2=O`: in the test on Mus musculus [2], the T/C is listed as 112%. The molecule further yielded an IC50 with HCT-116 of 24 nM.

For `CC(C)(C)[Si](C)(C)O[C@@]12C#C/C=C\C#C[C@H](O)C(=CCC1)C2=O`, in the test on Mus musculus [3], the T/C was determined as 115%. The IC50 with HCT-116 is greater than 2000 nM.

`CC(C)(C)[Si](C)(C)O[C@@]12C#C/C=C\C#C[C@@H](O)C(=CCC1)C2=O`: the T/C in the test with Mus musculus [4] came to 144%. For the same molecule, 100 nM corresponded to half-maximal inhibition in the test with HCT-116 (IC50).

`CC(C)(C)[Si](C)(C)O[C@@]12C#C/C=C\C#CCC(=CCC1)C2=O` registered an IC50 in the test with HCT-116 greater than 2000 nM.
